From patent US20250281499A1, “FUSED AMINO PYRIMIDINE COMPOUNDS FOR TREATMENT OF NEUROPATHIC AND NEURO-INFLAMMATORY PAIN” (Ovid Therapeutics Inc., priority 2024, published 2025)

How the values were obtained:
KCC3 = target: T1, KCC3 (Homo sapiens, UniProt Q9UHW9); test: Tl+ flux assay, HEK-293 cells expressing KCC3; type: cell-based; conditions: read-out: concentration at which effects on KCC3 were seen (EC50, FIG. 1G)
T1 construct: expressed in transfected cells; host or cells: HEK-293
T1 sequence (Q9UHW9 1-1150): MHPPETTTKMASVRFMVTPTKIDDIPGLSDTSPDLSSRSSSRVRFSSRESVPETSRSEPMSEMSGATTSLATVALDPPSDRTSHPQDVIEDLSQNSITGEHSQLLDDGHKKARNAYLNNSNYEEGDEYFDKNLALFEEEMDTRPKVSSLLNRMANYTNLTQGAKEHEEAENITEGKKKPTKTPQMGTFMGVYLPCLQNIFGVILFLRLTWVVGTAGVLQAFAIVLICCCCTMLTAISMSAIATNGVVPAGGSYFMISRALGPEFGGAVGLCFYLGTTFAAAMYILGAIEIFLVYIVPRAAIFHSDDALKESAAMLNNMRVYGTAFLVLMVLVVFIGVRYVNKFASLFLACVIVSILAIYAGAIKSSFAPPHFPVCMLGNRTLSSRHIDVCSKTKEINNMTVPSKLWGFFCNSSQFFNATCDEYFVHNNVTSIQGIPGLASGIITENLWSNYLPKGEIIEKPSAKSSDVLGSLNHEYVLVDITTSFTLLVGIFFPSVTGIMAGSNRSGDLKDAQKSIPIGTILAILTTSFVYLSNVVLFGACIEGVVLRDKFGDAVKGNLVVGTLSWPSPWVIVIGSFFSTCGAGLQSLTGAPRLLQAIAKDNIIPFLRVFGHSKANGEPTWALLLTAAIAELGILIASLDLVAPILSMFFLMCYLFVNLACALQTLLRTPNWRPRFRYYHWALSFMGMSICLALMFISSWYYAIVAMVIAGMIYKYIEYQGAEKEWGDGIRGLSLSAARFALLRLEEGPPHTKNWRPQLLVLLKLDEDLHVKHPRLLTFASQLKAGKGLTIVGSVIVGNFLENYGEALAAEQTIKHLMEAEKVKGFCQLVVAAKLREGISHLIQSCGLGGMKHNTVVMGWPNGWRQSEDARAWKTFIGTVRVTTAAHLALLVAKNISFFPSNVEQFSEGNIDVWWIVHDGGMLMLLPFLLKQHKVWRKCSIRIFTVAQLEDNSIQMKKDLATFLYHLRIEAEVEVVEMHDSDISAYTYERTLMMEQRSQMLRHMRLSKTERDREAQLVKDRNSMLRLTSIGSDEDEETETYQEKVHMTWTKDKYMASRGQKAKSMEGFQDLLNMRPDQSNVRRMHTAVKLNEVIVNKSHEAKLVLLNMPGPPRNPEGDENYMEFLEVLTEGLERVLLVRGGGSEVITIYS
Protocol: (§1) FLIPR TI Flux assay. HEK-293 cells were washed with HBSS, and then incubated with loading buffer containing TI sensitive fluorescent dye (https://www.moleculardevices.com), 20 μM bumetanide 20 μM ouabain and 2.5 mM probenecid for 1 h at room temperature (RT) under control conditions or with drugs in the dark using a FlexStation 3 microplate reader (Molecular Devices) and imaged […] for 30 min. Stimulus buffer was added containing 5 mM K^+/0.5 mM Tl^+ and cells were imaged every 1.5 over a 190 second time course The initial rate Tl^+ uptake (Relative Fluorescence Units (RFU) per second) was determined following addition of the stimulus buffer as outlined previously (Conway et al., 2017, supra) (Lee et al., 2022, supra).
(§2) Several studies have shown that the activity and plasma membrane accumulation of KCC2 is potentiated via phosphorylation of S940, a process mediated by the activity of protein kinase C and protein phosphatase 1 (Lee et al, 2011, supra; Lee et al., J Biol Chem 282, 29777-29784 (2007); Moore et al., Proc. Natl. Acad. Sci. U.S.A 115, 10166-10171 (2018); Moore et al., Trends Neurosci. 40, 555-571 (2017); Silayeva et al., Proc. Natl. Acad. Sci. U.S.A. 112, 3523-3528 (2015)). […] Compared to KCC2, effects on KCC3, KCC4, and NKCC1 were only seen at concentrations more than 35-fold that of KCC2 (>100 μM) (FIG. 1G).

KCC4 = target: T2, KCC4 (Homo sapiens, UniProt Q9Y666); test: Tl+ flux assay, HEK-293 cells expressing KCC4; type: cell-based; conditions: read-out: concentration at which effects on KCC4 were seen (EC50, FIG. 1G)
T2 construct: expressed in transfected cells; host or cells: HEK-293
T2 sequence (Q9Y666 1-1083): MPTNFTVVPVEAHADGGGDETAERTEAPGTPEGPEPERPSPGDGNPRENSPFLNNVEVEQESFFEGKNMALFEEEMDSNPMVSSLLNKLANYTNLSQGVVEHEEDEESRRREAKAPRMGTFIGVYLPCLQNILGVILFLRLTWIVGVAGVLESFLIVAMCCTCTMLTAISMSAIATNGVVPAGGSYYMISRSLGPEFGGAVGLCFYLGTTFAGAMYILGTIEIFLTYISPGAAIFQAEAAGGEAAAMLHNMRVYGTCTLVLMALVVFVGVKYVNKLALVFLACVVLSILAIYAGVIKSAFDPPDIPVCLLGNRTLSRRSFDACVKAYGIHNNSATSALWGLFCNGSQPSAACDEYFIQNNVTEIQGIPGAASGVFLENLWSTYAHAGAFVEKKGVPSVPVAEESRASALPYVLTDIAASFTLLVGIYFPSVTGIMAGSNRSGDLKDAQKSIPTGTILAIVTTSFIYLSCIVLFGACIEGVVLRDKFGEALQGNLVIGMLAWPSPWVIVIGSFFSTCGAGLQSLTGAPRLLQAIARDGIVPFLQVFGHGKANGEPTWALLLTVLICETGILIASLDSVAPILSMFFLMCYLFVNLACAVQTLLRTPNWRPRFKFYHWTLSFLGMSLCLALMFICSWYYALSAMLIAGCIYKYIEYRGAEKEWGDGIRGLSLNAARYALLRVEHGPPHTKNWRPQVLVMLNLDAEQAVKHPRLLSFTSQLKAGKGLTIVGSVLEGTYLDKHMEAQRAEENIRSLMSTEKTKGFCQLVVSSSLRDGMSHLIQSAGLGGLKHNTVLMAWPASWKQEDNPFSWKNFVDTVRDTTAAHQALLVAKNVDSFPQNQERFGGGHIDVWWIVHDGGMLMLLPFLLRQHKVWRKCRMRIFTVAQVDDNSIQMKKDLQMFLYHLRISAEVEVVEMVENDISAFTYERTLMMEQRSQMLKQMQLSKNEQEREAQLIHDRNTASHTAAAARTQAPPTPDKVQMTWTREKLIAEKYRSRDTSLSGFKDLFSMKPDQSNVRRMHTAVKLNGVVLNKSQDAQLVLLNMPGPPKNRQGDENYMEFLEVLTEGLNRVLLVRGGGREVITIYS
Protocol: as §1, §2

SMILES: C[C@@H]1CN(c2nc3c(c(Nc4ccc(C5CCCCC5)cc4)n2)COC3)CCO1 [Compound A, (R)—N-(4-cyclohexylphenyl)-2-(2-methylmorpholino)-5,7-dihydrofuro[3,4-d]pyrimidin-4-amine]
- EC50 (KCC3): > 100 µM
- EC50 (KCC4): > 100 µM
